# Reference: patent publication US5223413A, “Process for the preparation of vancomycin” (Biochin Biotechnologial Leanyvallalat, priority 1989, dated 1993)
# Where a name gives a salt, the structure may show the parent alone.
# Test system: ATCC 6633 Bacillus subtilis strain
# Assay: agar diffusion determination of antibiotic content / biological potency (USP XXII)
# Type: cell-based
# Details: final product of Example 5, related to USP reference standard
# Protocol: The quantitative determination of the antibiotic content of the fermentation broth and final product was performed by using the agar diffusion method according to the prescriptions of USP XXII. on the ATCC 6633 Bacillus subtilis strain. The vancomycin potency values were related to the commercially available USP reference standard.
smiles,measurement,value
CN[C@H](CC(C)C)C(=O)N[C@H]1C(=O)N[C@@H](CC(N)=O)C(=O)N[C@H]2C(=O)N[C@H]3C(=O)N[C@H](C(=O)N[C@H](C(=O)O)c4cc(O)cc(O)c4-c4cc3ccc4O)[C@H](O)c3ccc(c(Cl)c3)Oc3cc2cc(c3O[C@@H]2O[C@H](CO)[C@@H](O)[C@H](O)[C@H]2O[C@H]2C[C@](C)(N)[C@H](O)[C@H](C)O2)Oc2ccc(cc2Cl)[C@H]1O [vancomycin hydrochloride],biological potency based on microbiological determination,higher than 968 μg/mg
